Results: patent US6461997B1, “Triazole sulfones having herbicidal activity” (Monsanto Technology LLC, priority 1999, dated 2002)

Assays:
AMARE (redroot pigweed) = experiment: Pre-emergence herbicidal activity, warm season; assay type: in vivo, Amaranthus retroflexus; settings: GR80 = lowest tested rate (300, 100, 30, 10 g/ha) with 80% or greater inhibition; approx. 14 days after treating; 30/21° C.
Outline: (§1)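 GR80 values derive from percent inhibition relative to untreated plants, read roughly 14 days after sowing and pre-emergence soil-surface treatment (compound in 50:50 acetone/water; rates typically 10, 30, 100, 300 g/ha). Warm-season weeds grew at 30/21° C day/night, cool-season ones at 18/13° C; an asterisk marks activity without reaching 80% at the highest rate.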

STEME (common chickweed) = experiment: Pre-emergence herbicidal activity, cool season; assay type: in vivo, Stellaria media; settings: lowest tested rate with 80% or greater inhibition; rates 300, 100, 30, 10 g/ha; about 14 days
Outline: as §1

POROL (common purslane) = experiment: Pre-emergence herbicidal activity, warm season; assay type: in vivo, Portulaca oleracea; settings: GR80 = lowest tested rate (300, 100, 30, 10 g/ha) with 80% or greater inhibition; approx. 14 days after treating; 30/21° C.
Outline: as §1

[1] = test system: LAMPU (purple deadnettle); experiment: Pre-plant incorporated (PPI) herbicidal activity, cool season; assay type: in vivo, Lamium purpureum; settings: for PPI activity GR80, LAMPU: pre-plant incorporated, lowest tested rate with 80% or greater inhibition, about 14 days; for Percent inhibition LAMPU: weed, PPI application
Experimental: (§2) In another set of tests, the pre-plant incorporated (PPI) activity of compounds of this invention was evaluated on the same species as for the pre-emergence tests described above. In the PPI tests the following procedure, designed to simulate PPI application, was used.
(§3) A pre-prepared topsoil mixture (described above) was placed in a pot and compacted to a depth of 1.0 to 1.25 cm from the top of the pot. Seeds of each of several monocotyledonous and dicotyledonous annual plant species were placed on top of the soil. A sufficient quantity of soil to cover the seeds and level fill the pot was weighed into an open container. A known amount of the test compound was dissolved or suspended in an organic solvent and applied by spraying to this cover soil. The cover soil was thoroughly mixed to distribute the test compound throughout the cover soil, and was then applied as a cover layer over the seeds. Untreated soil was used as a cover layer for control pots. After treatment the plants were placed in a greenhouse where they received 0.64 cm of overhead irrigation. All subsequent watering consisted of a light overhead mist and/or subirrigation as needed for germination and growth. Tables 9 and 10 below relate to warm season plant species which were placed after pre-emergence treatment in a greenhouse with a 30/21° C. day/night temperature regime. Tables 11 and 12 below relates to cool season plant species placed after pre-emergence treatment in a greenhouse or growth chamber with an 18/13° C. day/night temperature regime. Only the compounds of Examples 1, 6, 8, 11, 13 and 15-20 were included in PPI tests.
(§4) Approximately 14 days after planting and treating, the plants were observed and herbicidal efficacy recorded as percent inhibition by comparison with untreated plants.

SOLNI (black nightshade) = experiment: Pre-plant incorporated (PPI) herbicidal activity, warm season; assay type: in vivo, Solanum nigrum; settings: for Percent inhibition SOLNI: PPI application; for PPI activity (GR80) SOLNI: pre-plant incorporated, GR80 = lowest tested rate with 80% or greater inhibition, approx. 14 days after treating, 30/21° C.
Experimental: as §2, §3, §4

rice (ORYSA) = experiment: Selectivity test, PPI, warm season crop; assay type: in vivo, Oryza sativa; settings: PPI application
Experimental: as §3, §4
Additional pre-emergence and PPI tests were conducted by the procedures described above, on warm and cool season weed species in the presence of crop species, to assess herbicidal selectivity. Crop species included in warm season tests were corn (Zea mays, ZEAMX), rice (Oryza sativa, ORYSA) and soybean (Glycine max, GLYMX). Crop species included in cool season tests were wheat (Triticum aestivum, TRZAW), barley (Hordeunm vulgare, HORVX) and oilseed rape (Brassica napus, BRSNS).
Tables 15 and 16 relate to pre-emergence and PPI tests respectively on warm season species. Table 17 relates to pre-emergence tests on cool season species.

ECHCG (barnyardgrass) = experiment: Pre-plant incorporated (PPI) herbicidal activity, warm season; assay type: in vivo, Echinochloa crus-galli; settings: for Percent inhibition ECHCG: PPI application; for PPI activity GR80, ECHCG: pre-plant incorporated, lowest tested rate with 80% or greater inhibition, about 14 days
Experimental: as §2, §3, §4

SORVU (shattercane) = experiment: as above; assay type: in vivo, Sorghum vulgare; settings: for Percent inhibition SORVU: PPI application; for PPI activity GR80, SORVU: pre-plant incorporated, lowest tested rate with 80% or greater inhibition, about 14 days
Experimental: as §2, §3, §4

ABUTH (velvetleaf) = experiment: as above; assay type: in vivo, Abutilon theophrasti; settings: for Percent inhibition ABUTH: PPI application; for PPI activity (GR80) ABUTH: pre-plant incorporated, GR80 = lowest tested rate with 80% or greater inhibition, approx. 14 days after treating, 30/21° C.
Experimental: as §2, §3, §4

| Compound | Pre-emergence activity GR80, STEME (STEME (common chickweed)) | PPI activity GR80, LAMPU [1] [g/ha] | Percent inhibition LAMPU ([1]; 10 g/ha) [%] | Percent inhibition LAMPU ([1]; 300 g/ha) [%] | Percent inhibition LAMPU ([1]; 900 g/ha) [%] | Percent inhibition SOLNI (SOLNI (black nightshade); 10 g/ha) [%] | Percent inhibition SOLNI (SOLNI (black nightshade); 30 g/ha) [%] | Percent inhibition SOLNI (SOLNI (black nightshade); 100 g/ha) [%] | Percent inhibition SOLNI (SOLNI (black nightshade); 300 g/ha) [%] | Percent inhibition SOLNI (SOLNI (black nightshade); 900 g/ha) [%] | PPI activity (GR80) SOLNI (SOLNI (black nightshade)) [g/ha] | Percent inhibition ORYSA (rice (ORYSA); 10 g/ha) [%] | Percent inhibition ORYSA (rice (ORYSA); 30 g/ha) [%] | Percent inhibition ORYSA (rice (ORYSA); 100 g/ha) [%] | Percent inhibition ORYSA (rice (ORYSA); 300 g/ha) [%] | Percent inhibition ORYSA (rice (ORYSA); 900 g/ha) [%] | Percent inhibition ECHCG (ECHCG (barnyardgrass); 10 g/ha) [%] | Percent inhibition ECHCG (ECHCG (barnyardgrass); 30 g/ha) [%] | Percent inhibition ECHCG (ECHCG (barnyardgrass); 100 g/ha) [%] | Percent inhibition ECHCG (ECHCG (barnyardgrass); 300 g/ha) [%] | further results |
| --- | --- | --- | --- | --- | --- | --- | --- | --- | --- | --- | --- | --- | --- | --- | --- | --- | --- | --- | --- | --- | --- |
| CCN(CC)C(=O)n1cnc(S(=O)(=O)C(F)(F)C(F)(F)SC)n1 [Example 14] | 300 g/ha |  |  |  |  |  |  |  |  |  |  |  |  |  |  |  |  |  |  |  | Pre-emergence activity (GR80) AMARE (AMARE (redroot pigweed)): 300 g/ha; Pre-emergence activity (GR80) POROL (POROL (common purslane)): 300 g/ha |
| C=C(CC(F)(F)S(=O)(=O)c1ncn(C(=O)N(CC)CC)n1)C[Si](C)(C)C [Example 20] | [empty] | 100 | 90 | 100 | 95 | 0 | 0 | 0 | 30 | 100 | 100 | 0 | 0 | 0 | 10 | 40 | 0 | 0 | 20 | 70 | Percent inhibition LAMPU ([1]; 30 g/ha): 60%; Percent inhibition LAMPU ([1]; 100 g/ha): 80%; Percent inhibition ECHCG (ECHCG (barnyardgrass); 900 g/ha): 100%; PPI activity GR80, ECHCG (ECHCG (barnyardgrass)): 300 g/ha; Percent inhibition SORVU (SORVU (shattercane); 10 g/ha): 0%; Percent inhibition SORVU (SORVU (shattercane); 30 g/ha): 0%; Percent inhibition SORVU (SORVU (shattercane); 100 g/ha): 30%; Percent inhibition SORVU (SORVU (shattercane); 300 g/ha): 40%; Percent inhibition SORVU (SORVU (shattercane); 900 g/ha): 100%; PPI activity GR80, SORVU (SORVU (shattercane)): * (activity observed, at least at highest rate, but <80% inhibition); Pre-emergence activity (GR80) POROL (POROL (common purslane)): 300 g/ha; Percent inhibition ABUTH (ABUTH (velvetleaf); 10 g/ha): 0%; Percent inhibition ABUTH (ABUTH (velvetleaf); 30 g/ha): 0%; Percent inhibition ABUTH (ABUTH (velvetleaf); 100 g/ha): 0%; Percent inhibition ABUTH (ABUTH (velvetleaf); 300 g/ha): 30%; Percent inhibition ABUTH (ABUTH (velvetleaf); 900 g/ha): 80%; PPI activity (GR80) ABUTH (ABUTH (velvetleaf)): 300 g/ha |
| CCN(CC)C(=O)n1cnc(S(=O)(=O)C(F)(F)SCCOC)n1 [Example 13] | 100 g/ha | 30 | 0 | 0 | 90 | 0 | 30 | 60 | 95 | 100 | 100 | 0 | 30 | 70 | 60 | 80 | 10 | 80 | 100 | 100 | Percent inhibition LAMPU ([1]; 100 g/ha): 0%; Percent inhibition ECHCG (ECHCG (barnyardgrass); 900 g/ha): 100%; PPI activity GR80, ECHCG (ECHCG (barnyardgrass)): 100 g/ha; Percent inhibition SORVU (SORVU (shattercane); 10 g/ha): 0%; Percent inhibition SORVU (SORVU (shattercane); 30 g/ha): 50%; Percent inhibition SORVU (SORVU (shattercane); 100 g/ha): 90%; Percent inhibition SORVU (SORVU (shattercane); 300 g/ha): 100%; Percent inhibition SORVU (SORVU (shattercane); 900 g/ha): 100%; PPI activity GR80, SORVU (SORVU (shattercane)): 300 g/ha; Percent inhibition ABUTH (ABUTH (velvetleaf); 10 g/ha): 0%; Percent inhibition ABUTH (ABUTH (velvetleaf); 30 g/ha): 0%; Percent inhibition ABUTH (ABUTH (velvetleaf); 100 g/ha): 0%; Percent inhibition ABUTH (ABUTH (velvetleaf); 300 g/ha): 20%; Percent inhibition ABUTH (ABUTH (velvetleaf); 900 g/ha): 85%; PPI activity (GR80) ABUTH (ABUTH (velvetleaf)): 100 g/ha |
| CCN(CC)C(=O)n1cnc(S(=O)(=O)C(F)(F)SCC(=O)OC)n1 [Example 11] | [empty] | 300 | 0 | 0 | 0 | 0 | 0 | 30 | 50 | 100 | 300 | 0 | 0 | 0 | 40 | 40 | 0 | 0 | 40 | 70 | Percent inhibition LAMPU ([1]; 30 g/ha): 0%; Percent inhibition LAMPU ([1]; 100 g/ha): 0%; Pre-emergence activity (GR80) AMARE (AMARE (redroot pigweed)): 100 g/ha; Percent inhibition ECHCG (ECHCG (barnyardgrass); 900 g/ha): 99%; PPI activity GR80, ECHCG (ECHCG (barnyardgrass)): * (activity observed, at least at highest rate, but <80% inhibition); Percent inhibition SORVU (SORVU (shattercane); 10 g/ha): 0%; Percent inhibition SORVU (SORVU (shattercane); 30 g/ha): 0%; Percent inhibition SORVU (SORVU (shattercane); 100 g/ha): 10%; Percent inhibition SORVU (SORVU (shattercane); 300 g/ha): 65%; Percent inhibition SORVU (SORVU (shattercane); 900 g/ha): 100%; PPI activity GR80, SORVU (SORVU (shattercane)): 300 g/ha; Percent inhibition ABUTH (ABUTH (velvetleaf); 10 g/ha): 0%; Percent inhibition ABUTH (ABUTH (velvetleaf); 30 g/ha): 0%; Percent inhibition ABUTH (ABUTH (velvetleaf); 100 g/ha): 0%; Percent inhibition ABUTH (ABUTH (velvetleaf); 300 g/ha): 20%; Percent inhibition ABUTH (ABUTH (velvetleaf); 900 g/ha): 20%; PPI activity (GR80) ABUTH (ABUTH (velvetleaf)): 300 g/ha |
| CCN(CC)C(=O)n1cnc(S(=O)(=O)C(F)(F)SCc2ccccc2)n1 [Example 10] | 300 g/ha |  | 0 | 0 | 50 | 20 | 60 | 100 | 80 | 100 |  | 0 | 0 | 0 | 30 | 0 | 0 | 0 | 50 | 100 | Percent inhibition LAMPU ([1]; 30 g/ha): 0%; Pre-emergence activity (GR80) AMARE (AMARE (redroot pigweed)): 100 g/ha; Percent inhibition ECHCG (ECHCG (barnyardgrass); 900 g/ha): 100%; Percent inhibition SORVU (SORVU (shattercane); 10 g/ha): 0%; Percent inhibition SORVU (SORVU (shattercane); 30 g/ha): 0%; Percent inhibition SORVU (SORVU (shattercane); 100 g/ha): 20%; Percent inhibition SORVU (SORVU (shattercane); 300 g/ha): 95%; Percent inhibition SORVU (SORVU (shattercane); 900 g/ha): 100%; Percent inhibition ABUTH (ABUTH (velvetleaf); 10 g/ha): 0%; Percent inhibition ABUTH (ABUTH (velvetleaf); 30 g/ha): 0%; Percent inhibition ABUTH (ABUTH (velvetleaf); 100 g/ha): 0%; Percent inhibition ABUTH (ABUTH (velvetleaf); 300 g/ha): 30%; Percent inhibition ABUTH (ABUTH (velvetleaf); 900 g/ha): 50% |
| CCN(CC)C(=O)n1cnc(S(=O)(=O)C(F)(F)C(=O)c2ccccc2)n1 [Example 6] | 300 g/ha | 300 |  |  |  |  |  |  |  |  | 100 |  |  |  |  |  |  |  |  |  | PPI activity GR80, ECHCG (ECHCG (barnyardgrass)): 100 g/ha; PPI activity GR80, SORVU (SORVU (shattercane)): 300 g/ha |
